The values that follow are results of earlier work, collected in paper PMC11125331, “Pharmaceutical Compounding in Veterinary Medicine: Suspension of Itraconazole” (Pharmaceutics, 2024).

Read-outs that look alike come from different tables or passages of the source.

One data set has as its system cats. Further details: method as in PMID 35245984, PMID 34109637. The following applies: punctual administrations.
The subject of data set [1] is dogs. More on the design: method as in PMID 35245984, PMID 34109637. To be noted: orally at 10 mg/kg.
Data set [2] concerns dogs. More on the design: method as in earlier work.
Details of data set [3]: method as in PMID 28627123.

With polysorbate 80, the Safety result with cats was “safe”. Further, the Adverse effects entry in the data set with dogs [1] was “produces cardiovascular changes and hypersensitivity effects”.

Take `OC[C@@H](O)[C@H](O)[C@@H](O)CO` [xylitol]: the Adverse effects entry with dogs [2] is “can cause severe hypoglycemia”.

A word on the Solubility: it is the dissolved amount per volume that the medium holds. As to `CCC(C)n1ncn(-c2ccc(N3CCN(c4ccc(OCC5COC(Cn6cncn6)(c6ccc(Cl)cc6Cl)O5)cc4)CC3)cc2)c1=O` (centres unmarked) [Itraconazole], the “Biopharmaceutical Classification System class” value is given as “class II”. Further, the “log P (n-octanol/water)” value (at pH 8.1) is given as 5.66. Moreover, the Solubility (in 0.1 M chlorhydric acid (HCl)) is 4 to 6 µg/mL. For the setting “in water”, the Solubility was 0.001 to 0.004 µg/mL. Moreover, the “Concentration in skin and hair relative to plasma levels” value in data set [3] is given as “ten times higher than plasma levels”.
